Source: ChEMBL document CHEMBL4002609, “Sulfonamide-based non-alkyne LpxC inhibitors as Gram-negative antibacterial agents” (Bioorg Med Chem Lett, 2017)
pIC50: −log10 of the molar value. In brackets after ≈: the same amount, converted by molar mass.

Tests used:
Staphylococcus aureus = assay: Antibacterial activity against Staphylococcus aureus ATCC 29213 by agar dilution method; type: functional
Klebsiella pneumoniae = assay: Antibacterial activity against Klebsiella pneumoniae ATCC 13883 by agar dilution method; type: functional
Escherichia coli = assay: Antibacterial activity against Escherichia coli TG1 by agar dilution method; type: functional
Pseudomonas aeruginosa = assay: Antibacterial activity against Pseudomonas aeruginosa PAO 4009 by agar dilution method; type: functional
[1] = target: T1, UDP-3-O-acyl-N-acetylglucosamine deacetylase (Escherichia coli K-12, UniProt P0A725); assay: Inhibition of Escherichia coli LpxC using UDP-3-O-(R-3-hydroxymyristoyl)GlcNAc as substrate after 60 mins by OPA reagent based fluorescence assay
T1 sequence (P0A725 whole entry): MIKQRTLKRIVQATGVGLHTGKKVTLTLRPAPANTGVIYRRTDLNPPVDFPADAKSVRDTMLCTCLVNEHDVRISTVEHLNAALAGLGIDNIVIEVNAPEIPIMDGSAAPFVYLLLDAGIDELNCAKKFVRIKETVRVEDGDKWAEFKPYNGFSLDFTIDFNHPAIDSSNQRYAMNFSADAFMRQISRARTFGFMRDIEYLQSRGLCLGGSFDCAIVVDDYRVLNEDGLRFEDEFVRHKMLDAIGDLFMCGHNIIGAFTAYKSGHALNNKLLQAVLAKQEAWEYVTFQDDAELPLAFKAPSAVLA

Cytochrome P450 3A4 = Cytochrome P450 3A4 (Homo sapiens, UniProt P08684); assay: Time-dependent inhibition of CYP3A4 (unknown origin); type: ADME
Cytochrome P450 1A2 = target: T2, Cytochrome P450 1A2 (Homo sapiens, UniProt P05177); assay: Time-dependent inhibition of CYP1A2 (unknown origin); type: ADME
T2 sequence (P05177 whole entry): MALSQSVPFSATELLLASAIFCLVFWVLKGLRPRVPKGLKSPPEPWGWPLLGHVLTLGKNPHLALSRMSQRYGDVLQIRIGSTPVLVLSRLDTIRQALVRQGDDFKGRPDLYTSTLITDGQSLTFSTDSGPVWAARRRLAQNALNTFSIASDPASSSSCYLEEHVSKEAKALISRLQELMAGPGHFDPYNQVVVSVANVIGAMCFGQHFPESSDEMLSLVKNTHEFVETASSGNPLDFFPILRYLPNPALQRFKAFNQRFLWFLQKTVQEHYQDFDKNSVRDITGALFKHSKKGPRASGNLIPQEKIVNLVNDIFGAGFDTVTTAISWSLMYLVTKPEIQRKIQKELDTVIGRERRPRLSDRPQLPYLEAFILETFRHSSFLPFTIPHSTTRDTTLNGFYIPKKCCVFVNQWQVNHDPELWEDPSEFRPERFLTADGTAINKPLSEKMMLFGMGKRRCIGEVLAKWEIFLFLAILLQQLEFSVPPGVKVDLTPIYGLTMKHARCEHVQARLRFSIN

Cytochrome P450 2C19 = Cytochrome P450 2C19 (Homo sapiens, UniProt P33261); assay: Time-dependent inhibition of CYP2C19 (unknown origin); type: ADME
Cytochrome P450 2D6 = Cytochrome P450 2D6 (Homo sapiens, UniProt P10635); assay: Time-dependent inhibition of CYP2D6 (unknown origin); type: ADME
Cytochrome P450 2C9 = Cytochrome P450 2C9 (Homo sapiens, UniProt P11712); assay: Time-dependent inhibition of CYP2C9 (unknown origin); type: ADME
Chain of Cytochrome P450 2C9 (P11712 whole entry): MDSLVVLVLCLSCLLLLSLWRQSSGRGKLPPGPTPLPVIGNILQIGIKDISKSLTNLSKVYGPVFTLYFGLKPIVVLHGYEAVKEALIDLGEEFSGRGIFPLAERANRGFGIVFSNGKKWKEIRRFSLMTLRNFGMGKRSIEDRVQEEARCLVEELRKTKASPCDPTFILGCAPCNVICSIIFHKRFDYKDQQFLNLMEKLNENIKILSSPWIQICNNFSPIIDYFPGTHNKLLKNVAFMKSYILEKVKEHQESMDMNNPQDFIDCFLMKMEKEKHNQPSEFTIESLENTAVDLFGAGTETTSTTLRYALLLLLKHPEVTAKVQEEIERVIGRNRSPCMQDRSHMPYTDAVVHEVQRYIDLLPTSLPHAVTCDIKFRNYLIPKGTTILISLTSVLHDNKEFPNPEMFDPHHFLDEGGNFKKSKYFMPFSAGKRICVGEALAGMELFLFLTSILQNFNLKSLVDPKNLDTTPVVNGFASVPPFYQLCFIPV

Chain of Cytochrome P450 2D6 (P10635 whole entry): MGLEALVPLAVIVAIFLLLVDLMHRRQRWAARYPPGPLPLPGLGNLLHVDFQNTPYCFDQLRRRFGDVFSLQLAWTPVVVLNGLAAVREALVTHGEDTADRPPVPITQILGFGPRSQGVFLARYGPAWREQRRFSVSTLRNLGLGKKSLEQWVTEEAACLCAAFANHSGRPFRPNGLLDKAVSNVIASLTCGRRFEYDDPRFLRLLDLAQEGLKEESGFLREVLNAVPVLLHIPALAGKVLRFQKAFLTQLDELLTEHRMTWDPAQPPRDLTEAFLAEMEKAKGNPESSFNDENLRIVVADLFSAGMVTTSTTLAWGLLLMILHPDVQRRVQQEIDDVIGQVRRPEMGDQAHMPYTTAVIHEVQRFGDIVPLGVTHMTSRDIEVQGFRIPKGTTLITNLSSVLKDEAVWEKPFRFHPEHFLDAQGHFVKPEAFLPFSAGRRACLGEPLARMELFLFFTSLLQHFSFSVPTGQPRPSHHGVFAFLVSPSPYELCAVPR
Chain of Cytochrome P450 3A4 (P08684 whole entry): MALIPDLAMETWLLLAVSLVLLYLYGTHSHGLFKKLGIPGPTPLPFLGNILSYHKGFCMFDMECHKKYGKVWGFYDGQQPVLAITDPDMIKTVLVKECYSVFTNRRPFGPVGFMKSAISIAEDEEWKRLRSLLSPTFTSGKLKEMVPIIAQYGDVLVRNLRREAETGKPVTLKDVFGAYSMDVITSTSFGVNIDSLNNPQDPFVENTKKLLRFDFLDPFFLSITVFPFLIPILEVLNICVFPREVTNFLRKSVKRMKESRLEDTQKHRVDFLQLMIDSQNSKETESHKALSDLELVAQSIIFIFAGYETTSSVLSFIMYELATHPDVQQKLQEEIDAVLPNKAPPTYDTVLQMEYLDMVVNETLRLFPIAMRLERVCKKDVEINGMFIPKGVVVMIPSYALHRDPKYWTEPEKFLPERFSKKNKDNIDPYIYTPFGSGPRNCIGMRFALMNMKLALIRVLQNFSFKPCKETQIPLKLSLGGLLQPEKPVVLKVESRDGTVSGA
Chain of Cytochrome P450 2C19 (P33261 whole entry): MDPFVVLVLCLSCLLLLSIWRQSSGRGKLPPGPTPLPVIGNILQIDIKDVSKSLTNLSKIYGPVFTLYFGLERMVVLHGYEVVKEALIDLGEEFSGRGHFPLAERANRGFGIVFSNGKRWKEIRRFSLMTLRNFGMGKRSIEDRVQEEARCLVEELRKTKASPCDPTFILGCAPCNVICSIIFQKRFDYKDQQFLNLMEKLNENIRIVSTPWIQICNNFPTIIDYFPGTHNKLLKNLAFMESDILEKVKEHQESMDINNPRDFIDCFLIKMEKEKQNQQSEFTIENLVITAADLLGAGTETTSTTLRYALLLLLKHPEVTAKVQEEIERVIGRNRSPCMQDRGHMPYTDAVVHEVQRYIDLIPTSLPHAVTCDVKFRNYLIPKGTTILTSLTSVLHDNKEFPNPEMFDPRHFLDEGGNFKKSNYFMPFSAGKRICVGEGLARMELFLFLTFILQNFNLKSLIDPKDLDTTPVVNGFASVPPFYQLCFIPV

| Compound | MIC (Staphylococcus aureus) [µg/mL] | MIC (Klebsiella pneumoniae) [µg/mL] | MIC (Escherichia coli) [µg/mL] | MIC (Pseudomonas aeruginosa) [µg/mL] | pIC50 [1] | TDI (Cytochrome P450 3A4) | TDI (Cytochrome P450 1A2) | TDI (Cytochrome P450 2C19) | TDI (Cytochrome P450 2D6) | TDI (Cytochrome P450 2C9) |
| --- | --- | --- | --- | --- | --- | --- | --- | --- | --- | --- |
| C[C@@H](O)[C@H](NC(=O)c1ccc(C#Cc2ccc(CN3CCOCC3)cc2)cc1)C(=O)NO | > 128 | 0.25 (≈ 0.571 µM) | 0.125 (≈ 0.286 µM) | 0.5 (≈ 1.14 µM) | – | – | – | – | – | – |
| CC(C)(NS(C)(=O)=O)[C@H](NC(=O)c1ccc(-c2ccccc2)cc1)C(=O)NO | – | 64 (≈ 158 µM) | 2 (≈ 4.93 µM) | 1 (≈ 2.47 µM) | 5.92 | – | – | – | – | – |
| CC(C)(NS(C)(=O)=O)[C@H](NC(=O)c1ccc(-c2cc3ccccc3o2)cc1)C(=O)NO | 64 (≈ 144 µM) | 1 (≈ 2.24 µM) | 0.25 (≈ 0.561 µM) | 1 (≈ 2.24 µM) | 7.09 | – | – | – | – | – |
| CC(C)(NS(C)(=O)=O)[C@H](NC(=O)c1ccc(-c2cc3cc(F)ccc3o2)cc1)C(=O)NO | 32 (≈ 69 µM) | 1 (≈ 2.16 µM) | 0.25 (≈ 0.539 µM) | 0.5 (≈ 1.08 µM) | 7.00 | – | – | – | – | – |
| CC(C)(NS(C)(=O)=O)[C@H](NC(=O)c1ccc(-c2cc3ccc(OCCO)cc3o2)cc1)C(=O)NO | > 128 | 8 (≈ 15.8 µM) | 1 (≈ 1.98 µM) | 4 (≈ 7.91 µM) | 8.00 | – | – | – | – | – |
| CC(C)(NS(C)(=O)=O)[C@H](NC(=O)c1ccc(-c2cc3ccc(O)cc3o2)cc1)C(=O)NO | > 64 | 8 (≈ 17.3 µM) | 1 (≈ 2.17 µM) | 2 (≈ 4.33 µM) | 6.85 | – | – | – | – | – |
| Cc1ccc(-c2ccc(C(=O)N[C@H](C(=O)NO)C(C)(C)NS(C)(=O)=O)nc2)cc1 | – | > 128 | 32 (≈ 76.1 µM) | 32 (≈ 76.1 µM) | < 5.00 | – | – | – | – | – |
| CC(C)(NS(C)(=O)=O)[C@H](NC(=O)c1ccc(-c2cc3ccc(F)cc3o2)cc1)C(=O)NO | 64 (≈ 138 µM) | 1 (≈ 2.16 µM) | 0.25 (≈ 0.539 µM) | 0.5 (≈ 1.08 µM) | 7.10 | – | – | – | – | – |
| CC(C)(NS(C)(=O)=O)[C@H](NC(=O)c1ccc(-c2cc3ccccn3n2)cc1)C(=O)NO | > 128 | > 128 | 64 (≈ 144 µM) | 4 (≈ 8.98 µM) | < 5.00 | – | – | – | – | – |
| Cc1ccc(-c2ccc(C(=O)N[C@H](C(=O)NO)C(C)(C)NS(C)(=O)=O)cc2)cc1 | > 128 | 4 (≈ 9.54 µM) | 1 (≈ 2.38 µM) | 0.5 (≈ 1.19 µM) | 6.38 | Active | Active | Active | Active | Active |
| CC(C)(NS(C)(=O)=O)[C@H](NC(=O)c1ccc(-c2nc3ccccc3o2)cc1)C(=O)NO | > 128 | 8 (≈ 17.9 µM) | 1 (≈ 2.24 µM) | 4 (≈ 8.96 µM) | 6.39 | – | – | – | – | – |
| CC(C)(NS(C)(=O)=O)[C@H](NC(=O)c1ccc(-c2cc3cncnc3o2)cc1)C(=O)NO | > 128 | > 128 | 128 (≈ 286 µM) | 32 (≈ 71.5 µM) | < 5.00 | – | – | – | – | – |
| Cc1cnc(-c2ccc(C(=O)N[C@H](C(=O)NO)C(C)(C)NS(C)(=O)=O)cc2)nc1 | – | > 128 | 64 (≈ 152 µM) | 16 (≈ 38 µM) | < 5.00 | – | – | – | – | – |
| CC(C)(NS(C)(=O)=O)[C@H](NC(=O)c1ccc(-c2cc3cc4c(cc3o2)OCO4)cc1)C(=O)NO | > 32 | 0.5 (≈ 1.02 µM) | 0.063 (≈ 0.129 µM) | 0.5 (≈ 1.02 µM) | 7.92 | – | – | – | – | – |
| CN(C)CCOc1ccc2cc(-c3ccc(C(=O)N[C@H](C(=O)NO)C(C)(C)NS(C)(=O)=O)cc3)oc2c1 | > 128 | 32 (≈ 60.1 µM) | 4 (≈ 7.51 µM) | 8 (≈ 15 µM) | 7.66 | – | – | – | – | – |
| CC(C)(NS(C)(=O)=O)[C@H](NC(=O)c1ccc(-c2cc3ccncc3o2)cc1)C(=O)NO | > 128 | 128 (≈ 287 µM) | 8 (≈ 17.9 µM) | 8 (≈ 17.9 µM) | 5.85 | – | – | – | – | – |
| Cc1ccc(-c2ccc(C(=O)N[C@H](C(=O)NO)C(C)(C)NS(C)(=O)=O)cn2)cc1 | – | 64 (≈ 152 µM) | 8 (≈ 19 µM) | 4 (≈ 9.51 µM) | 5.82 | – | – | – | – | – |
| Cc1ncc(-c2ccc(C(=O)N[C@H](C(=O)NO)C(C)(C)NS(C)(=O)=O)cc2)cn1 | – | > 128 | > 128 | > 128 | < 5.00 | – | – | – | – | – |
